The values below come from PMC4769088, “Antifungal Activity and Action Mechanism of Histatin 5-Halocidin Hybrid Peptides against Candida ssp” (PLoS ONE, 2016).

Where a SMILES comes first, the peptide text is derived from it. Bridges are numbered along the chain shown (N, C = ends). Roman numbers before positions name the chains, in order. Where no end group is shown, it is not given here.

The experiment concerns Candida cells. In words: Candidacidal activity in energy depleted (azide) cells. The experiment is classed as cell-based, Candida albicans. As to conditions: cells pre-incubated for 60 min in 5 mM NaN3 at 30°C, colony count assay. How it is done: The candidacidal activities of the peptides were tested by using standard microdilution plate assays, radial diffusion assays and broth dilution assay slightly modified from the procedure recommended by the National Committee for Clinical Laboratory Standards. For the candidacidal assays, C. albicans cells were grown in YPD medium and washed twice with 10 mM sodium phosphate buffer (NaPB; Na2HPO4, NaH2PO4, pH 7.4). The cells (1 x 10^6) were then mixed with different concentrations of peptides and incubated at 30°C with constant shaking for 60 min. For energy depletion experiments, cells were pre-incubated with 10 mM NaPB containing 5 mM NaN3 at 30°C for 60 min before the addition of peptides. The cell suspensions were diluted in 10 mM NaPB and aliquots of 500 cells were spread onto YPD agar plates then incubated for 24 h at 30°C to visualize the surviving colonies. Cell survival was expressed as a percentage of that for the control, and the loss of viability was calculated as [1 x (number of colonies from peptide-treated cells/number of colonies from control cells)] x 100. Candidacidal assays were performed in triplicate. For the radial diffusion assay, C. albicans cells were grown in YPD medium overnight and washed twice with 10 mM NaPB. Washed yeast-phase C. albicans cells (1 x 10^6 CFU) were trapped in thin underlay gels containing 9 mM sodium phosphate, 1 mM sodium citrate buffer, 1% (wt/vol) agarose (A6013; Sigma), and 0.3 mg of Sabouraud dextrose broth (Difco)/ml. After incubation at 37°C for 3 h, a 10 ml overlay gel of 1% agarose and 6% Sabouraud dextrose broth was poured on the underlay gel and then the plates were incubated overnight at 37°C. The clear-zone diameters were measured to the nearest 0.1 mm and graphed against the peptide concentration. Zone diameters were expressed in units (0.1 mm = 1 unit). For the broth dilution assay, the Candida strains were cultured in LYM broth for 18 h at 30°C. The numbers of yeasts were counted using a hemocytometer. Stock peptide solutions were prepared to a concentration of 320 μg/ml in distilled water, and were then serially diluted twofold, to 5 μg/ml. 100 μl aliquots of the diluted culture media containing candida cells (1 x 10^3) were dispensed into the wells of 96-well polypropylene microtiter plates (Costar 3879, Corning, NY), to which peptide solution (11 μl) was then added. In the experiments conducted to assess the candidacidal activity of peptides in the presence of salt, we used LYM supplemented with 150 mM NaCl for the culture medium, which was mixed with the peptide solution. The antifungal activities were evaluated after 24 h of incubation at 30°C by the observation of visible turbidity the wells. The MIC values were expressed as intervals (a–b), with a representing the highest tested concentration at which microbes continue to grow, and b representing the lowest concentration at which growth inhibition could be detected.
To confirm the killing effect of the peptides, washed Candida cells (1 × 10^7 cells/ml) were treated with the peptides and propidium iodide (PI) was added. For energy depletion experiments, cells were pre-incubated with 10 mM NaPB containing 5 mM NaN3 at 30°C for 60 min before the addition of peptides. Propidium iodide (PI) uptake was measured using a multi reader and calculated with the formula [propidium iodide (PI) uptake value of peptide-treated cells—propidium iodide (PI) value of control cells]
Fig 6 The effects of azide on killing activity of peptides. […]

For `CC(C)C[C@H](NC(=O)[C@@H](N)Cc1c[nH]c2ccccc12)C(=O)N[C@@H](CC(N)=O)C(=O)N[C@@H](C)C(=O)N[C@@H](CCCCN)C(=O)N[C@@H](CCCNC(=N)N)C(=O)N[C@@H](Cc1c[nH]cn1)C(=O)N[C@@H](Cc1c[nH]cn1)C(=O)NCC(=O)N[C@@H](Cc1ccc(O)cc1)C(=O)N[C@@H](CCCCN)C(=O)N[C@@H](CSSC[C@H](NC(=O)[C@H](CCCCN)NC(=O)[C@H](Cc1ccc(O)cc1)NC(=O)CNC(=O)[C@H](Cc1c[nH]cn1)NC(=O)[C@H](Cc1c[nH]cn1)NC(=O)[C@H](CCCNC(=N)N)NC(=O)[C@H](CCCCN)NC(=O)[C@H](C)NC(=O)[C@H](CC(N)=O)NC(=O)[C@H](CC(C)C)NC(=O)[C@@H](N)Cc1c[nH]c2ccccc12)C(=O)N[C@@H](CCCCN)C(=O)N[C@@H](Cc1ccccc1)C(=O)N[C@@H](Cc1c[nH]cn1)C(N)=O)C(=O)N[C@@H](CCCCN)C(=O)N[C@@H](Cc1ccccc1)C(=O)N[C@@H](Cc1c[nH]cn1)C(N)=O` [di-WP2] (I: H-WLNAKRHHGYKCKFH-NH2 / II: H-WLNAKRHHGYKCKFH-NH2; disulfide I:12-II:12 (inferred); N-terminus assumed), the “antimicrobial activities in energy depleted cells” value is listed as “not inhibited”.

For AKRHHGYKRKFH-NH2 [P113], the “antimicrobial activities in energy depleted cells” value is listed as “significantly reduced”. With `CC(C)C[C@H](NC(=O)CNC(=O)[C@H](Cc1c[nH]cn1)NC(=O)[C@H](Cc1c[nH]cn1)NC(=O)[C@H](CC(C)C)NC(=O)[C@H](CC(C)C)NC(=O)[C@H](C)NC(=O)[C@H](CC(N)=O)NC(=O)[C@H](CC(C)C)NC(=O)[C@@H](N)Cc1c[nH]c2ccccc12)C(=O)N[C@@H](CC(N)=O)C(=O)N[C@@H](CSSC[C@H](NC(=O)[C@H](CC(N)=O)NC(=O)[C@H](CC(C)C)NC(=O)CNC(=O)[C@H](Cc1c[nH]cn1)NC(=O)[C@H](Cc1c[nH]cn1)NC(=O)[C@H](CC(C)C)NC(=O)[C@H](CC(C)C)NC(=O)[C@H](C)NC(=O)[C@H](CC(N)=O)NC(=O)[C@H](CC(C)C)NC(=O)[C@@H](N)Cc1c[nH]c2ccccc12)C(=O)N[C@@H](C)C(=O)N[C@@H](CCCCN)C(=O)NCC(=O)N[C@H](C(=O)N[C@@H](CC(C)C)C(=O)N[C@@H](C)C(N)=O)C(C)C)C(=O)N[C@@H](C)C(=O)N[C@@H](CCCCN)C(=O)NCC(=O)N[C@H](C(=O)N[C@@H](CC(C)C)C(=O)N[C@@H](C)C(N)=O)C(C)C` [di-18Hc, reference compound] (I: H-WLNALLHHGLNCAKGVLA-NH2 / II: H-WLNALLHHGLNCAKGVLA-NH2; disulfide I:12-II:12 (inferred); N-terminus assumed) the entry was “not inhibited”; with `C[C@H](NC(=O)[C@H](Cc1c[nH]cn1)NC(=O)[C@H](CO)NC(=O)[C@@H](N)CC(=O)O)C(=O)N[C@@H](CCCCN)C(=O)N[C@@H](CCCNC(=N)N)C(=O)N[C@@H](Cc1c[nH]cn1)C(=O)N[C@@H](Cc1c[nH]cn1)C(=O)NCC(=O)N[C@@H](Cc1ccc(O)cc1)C(=O)N[C@@H](CCCCN)C(=O)N[C@@H](CCCNC(=N)N)C(=O)N[C@@H](CCCCN)C(=O)N[C@@H](Cc1ccccc1)C(=O)N[C@@H](Cc1c[nH]cn1)C(=O)N[C@@H](CCC(=O)O)C(=O)N[C@@H](CCCCN)C(=O)N[C@@H](Cc1c[nH]cn1)C(=O)N[C@@H](Cc1c[nH]cn1)C(=O)N[C@@H](CO)C(=O)N[C@@H](Cc1c[nH]cn1)C(=O)N[C@@H](CCCNC(=N)N)C(=O)NCC(=O)N[C@@H](Cc1ccc(O)cc1)C(=O)O` [Hst 5, Histatin 5], “significantly reduced”; with `CC(C)C[C@H](NC(=O)CNC(=O)[C@H](Cc1c[nH]cn1)NC(=O)[C@H](Cc1c[nH]cn1)NC(=O)[C@H](CCCNC(=N)N)NC(=O)[C@H](CCCCN)NC(=O)[C@H](C)N)C(=O)N[C@@H](CC(N)=O)C(=O)N[C@@H](CSSC[C@H](NC(=O)[C@H](CC(N)=O)NC(=O)[C@H](CC(C)C)NC(=O)CNC(=O)[C@H](Cc1c[nH]cn1)NC(=O)[C@H](Cc1c[nH]cn1)NC(=O)[C@H](CCCNC(=N)N)NC(=O)[C@H](CCCCN)NC(=O)[C@H](C)N)C(=O)N[C@@H](C)C(=O)N[C@@H](CCCCN)C(=O)N[C@@H](Cc1ccccc1)C(=O)N[C@@H](Cc1c[nH]cn1)C(N)=O)C(=O)N[C@@H](C)C(=O)N[C@@H](CCCCN)C(=O)N[C@@H](Cc1ccccc1)C(=O)N[C@@H](Cc1c[nH]cn1)C(N)=O` [di-PH2] (I: H-AKRHHGLNCAKFH-NH2 / II: H-AKRHHGLNCAKFH-NH2; disulfide I:9-II:9 (inferred); N-terminus assumed), “significantly reduced”.
